ChEMBL document CHEMBL1201862, “PubChem BioAssay data set” (2004)
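Test compounds were applied to cells in 96-well plates for 48 hours at 5 doses. Here, GI50 denotes the concentration required for 50% inhibition of growth.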 Activity calls are given as the source filed them. No stated cut-off is given here; in the data, active = GI50 up to about 1.1 µM and inactive = higher.

Key:
Experiment in all cases: growth of human tumour cells (NCI), 48 h
OVCAR-3 = system: OVCAR-3
786-0 = system: 786-0
ACHN = system: ACHN
A549 = system: A549
KM12 = system: KM12
EKVX = system: EKVX
UO-31 = system: UO-31
NCI-H522 = system: NCI-H522
OVCAR-5 = system: OVCAR-5
SF-539 = system: SF-539
SK-MEL-5 = system: SK-MEL-5
HOP-92 = system: HOP-92
T47D = system: T47D
MDA-MB-231 = system: MDA-MB-231
SNB-75 = system: SNB-75
Hs-578T = system: Hs-578T
SR = system: SR
UACC-62 = system: UACC-62
MDA-N = system: MDA-N
HCC 2998 = system: HCC 2998

Measured: GI50

COc1ccc(C2=C(Cl)C(=O)N(c3ccc(OC)cc3OC)C(=O)C2(Cl)Cl)cc1
inactive: OVCAR-3 12.5 µM | 786-0 15.6 µM | ACHN 15.7 µM | A549 > 100 µM | KM12 17.1 µM | EKVX 32.8 µM | UO-31 14.8 µM | NCI-H522 14.3 µM | OVCAR-5 14.4 µM | SF-539 10.4 µM | SK-MEL-5 14.9 µM | HOP-92 9.77 µM | T47D 11.8 µM | MDA-MB-231 7.62 µM | SNB-75 22.9 µM | SR 4.09 µM | UACC-62 14.5 µM
active: Hs-578T < 0.01 µM

OC(c1ccccc1)c1c(-c2ccccc2)oc(-c2ccccc2)c1C(O)c1ccccc1 (centres undefined)
inactive: OVCAR-3 5.73 µM | 786-0 9.06 µM | ACHN 6.14 µM | A549 5.73 µM | KM12 7.24 µM | EKVX 5.75 µM | UO-31 10.6 µM | NCI-H522 3.15 µM | OVCAR-5 15.6 µM | SF-539 16.7 µM | SK-MEL-5 11.4 µM | HOP-92 13.4 µM | T47D 6.28 µM | MDA-N 9.1 µM | HCC 2998 16.8 µM | Hs-578T 13.5 µM | SR 9.95 µM | UACC-62 11.2 µM

O=c1oc2ccccc2n1CCN1CCCCC1
inactive: OVCAR-3 > 100 µM | 786-0 > 100 µM | ACHN > 100 µM | KM12 > 100 µM | EKVX > 100 µM | OVCAR-5 > 100 µM | SF-539 > 100 µM | SK-MEL-5 > 100 µM | MDA-MB-231 > 100 µM | MDA-N > 100 µM | SNB-75 > 100 µM | Hs-578T > 100 µM | SR > 100 µM | UACC-62 > 100 µM

ClCCN1CCC2(CC1)SSC1(CCN(CCCl)CC1)S2
inactive: OVCAR-3 19.7 µM | 786-0 36.7 µM | ACHN 40.5 µM | A549 89.9 µM | KM12 > 100 µM | UO-31 65.6 µM | OVCAR-5 29.6 µM | SF-539 20.6 µM | SK-MEL-5 42.4 µM | HOP-92 1.79 µM | MDA-MB-231 57.5 µM | MDA-N > 100 µM | SNB-75 59.3 µM | Hs-578T 45.1 µM | SR 7.74 µM | UACC-62 20.8 µM

CC(=O)N(CCc1ccccc1)C(C#N)c1ccc(OCCCCCCCCCCOc2ccc(C(C#N)N(CCc3ccccc3)C(C)=O)cc2)cc1 (centres undefined)
inactive: OVCAR-3 > 100 µM | 786-0 16.2 µM | ACHN 66.4 µM | A549 > 100 µM | KM12 > 100 µM | EKVX 36.5 µM | UO-31 62.2 µM | OVCAR-5 > 100 µM | SF-539 23.3 µM | SK-MEL-5 > 100 µM | HOP-92 15 µM | T47D 41 µM | MDA-MB-231 15.2 µM | MDA-N > 100 µM | HCC 2998 > 100 µM | SNB-75 17.7 µM | Hs-578T 17.1 µM | UACC-62 62.1 µM

NC(=O)N/N=C(\Cc1cc(=O)oc2cc(O)ccc12)C(=O)Nc1ccccc1C(N)=O
inactive: OVCAR-3 > 100 µM | 786-0 > 100 µM | ACHN > 100 µM | A549 > 100 µM | KM12 > 100 µM | EKVX > 100 µM | UO-31 > 100 µM | NCI-H522 > 100 µM | OVCAR-5 > 100 µM | SF-539 > 100 µM | SK-MEL-5 > 100 µM | HOP-92 > 100 µM | MDA-MB-231 > 100 µM | MDA-N > 100 µM | HCC 2998 61 µM | SNB-75 > 100 µM | Hs-578T > 100 µM | UACC-62 > 100 µM

COc1ccc(-n2c(=O)[nH]n(C(C)=O)c2=O)cc1
inactive: 786-0 > 100 µM | ACHN > 100 µM | A549 > 100 µM | KM12 > 100 µM | EKVX > 100 µM | UO-31 > 100 µM | NCI-H522 > 100 µM | OVCAR-5 > 100 µM | SF-539 > 100 µM | SK-MEL-5 > 100 µM | HOP-92 > 100 µM | MDA-MB-231 > 100 µM | MDA-N > 100 µM | SNB-75 > 100 µM | Hs-578T > 100 µM | SR > 100 µM | UACC-62 > 100 µM

CC(=O)Oc1ccc2c(c1)CC[C@@H]1C2[C@@H](O[N+](=O)[O-])C[C@@]2(C)C1CC[C@@H]2O[N+](=O)[O-] (some centres undefined)
inactive: OVCAR-3 13.2 µM | 786-0 14.5 µM | ACHN 8.69 µM | A549 13.2 µM | KM12 14.1 µM | EKVX 12.3 µM | UO-31 12.3 µM | NCI-H522 11.1 µM | OVCAR-5 19.4 µM | SF-539 18.2 µM | SK-MEL-5 9.75 µM | HOP-92 10.1 µM | T47D 6.97 µM | MDA-N 14.3 µM | HCC 2998 1.63 µM | SNB-75 13.5 µM | Hs-578T 19.1 µM | SR 5.31 µM | UACC-62 13.9 µM

COc1ccc2c(=O)c3c([nH]c2c1)OCC3=O
inactive: 786-0 > 100 µM | ACHN > 100 µM | KM12 > 100 µM | EKVX > 100 µM | UO-31 > 100 µM | SF-539 > 100 µM | SK-MEL-5 > 100 µM | HOP-92 > 100 µM | T47D > 100 µM | MDA-MB-231 > 100 µM | HCC 2998 > 100 µM | SNB-75 > 100 µM | Hs-578T > 100 µM | SR > 100 µM | UACC-62 > 100 µM

Cc1ccc2nc(-n3c(/C=C/c4ccccc4O)nc4ccccc4c3=O)sc2c1
inactive: OVCAR-3 > 100 µM | 786-0 > 100 µM | ACHN > 100 µM | A549 > 100 µM | KM12 > 100 µM | EKVX 19.8 µM | UO-31 > 100 µM | NCI-H522 > 100 µM | OVCAR-5 > 100 µM | SK-MEL-5 > 100 µM | HOP-92 > 100 µM | MDA-MB-231 > 100 µM | MDA-N > 100 µM | HCC 2998 > 100 µM | SNB-75 > 100 µM | Hs-578T > 100 µM | UACC-62 > 100 µM

COC(NC(=O)Nc1ccccc1C)(C(F)(F)F)C(F)(F)F
inactive: OVCAR-3 > 100 µM | 786-0 > 100 µM | ACHN > 100 µM | A549 > 100 µM | KM12 > 100 µM | UO-31 > 100 µM | NCI-H522 30.4 µM | OVCAR-5 > 100 µM | SF-539 > 100 µM | SK-MEL-5 > 100 µM | HOP-92 > 100 µM | T47D 22.4 µM | MDA-N > 100 µM | HCC 2998 > 100 µM | SNB-75 > 100 µM | Hs-578T > 100 µM | SR > 100 µM | UACC-62 56.6 µM

CN(CCNC(=O)c1nn(-c2ccccc2)c2c1ccc1ccccc12)CCNC(=O)c1nn(-c2ccccc2)c2c1ccc1ccccc12
inactive: OVCAR-3 1.71 µM | 786-0 1.67 µM | ACHN 2.11 µM | A549 2.94 µM | KM12 2.37 µM | EKVX 1.98 µM | UO-31 2.07 µM | NCI-H522 2.04 µM | OVCAR-5 4.49 µM | SF-539 1.66 µM | SK-MEL-5 1.64 µM | HOP-92 1.73 µM | T47D 2.41 µM | MDA-MB-231 1.29 µM | MDA-N 1.75 µM | HCC 2998 1.53 µM | SNB-75 2.18 µM | Hs-578T 2.14 µM | UACC-62 1.77 µM

Cc1ccc(OC2CC(n3cnc4c(=O)[nH]c(Br)nc43)OC2Oc2ccc(C)cc2)cc1 (centres undefined)
inactive: OVCAR-3 18.5 µM | 786-0 26.3 µM | ACHN 19.8 µM | A549 22.7 µM | KM12 29 µM | EKVX 23.8 µM | UO-31 19.1 µM | NCI-H522 21.2 µM | OVCAR-5 21.4 µM | SF-539 20.2 µM | SK-MEL-5 22.4 µM | HOP-92 22.4 µM | T47D 24.8 µM | MDA-MB-231 23 µM | HCC 2998 24 µM | Hs-578T 24.5 µM | SR 18.1 µM | UACC-62 23.7 µM

C/C(=N\Nc1nc2cc(F)ccc2s1)c1ccccn1
inactive: HCC 2998 1.92 µM
active: OVCAR-3 0.0284 µM | 786-0 0.0439 µM | ACHN < 0.01 µM | A549 0.26 µM | KM12 0.165 µM | EKVX < 0.0141 µM | UO-31 0.0192 µM | NCI-H522 < 0.01 µM | OVCAR-5 0.716 µM | SF-539 0.0906 µM | SK-MEL-5 0.053 µM | HOP-92 0.0352 µM | T47D < 0.01 µM | MDA-MB-231 0.0389 µM | SNB-75 0.661 µM | Hs-578T 0.335 µM | SR 0.0313 µM | UACC-62 0.123 µM

c1ccc([P+](CCNCCNCC[P+](c2ccccc2)(c2ccccc2)c2ccccc2)(c2ccccc2)c2ccccc2)cc1
inactive: OVCAR-3 > 100 µM | 786-0 > 100 µM | ACHN > 100 µM | A549 > 100 µM | KM12 > 100 µM | EKVX > 100 µM | UO-31 > 100 µM | OVCAR-5 > 100 µM | SF-539 > 100 µM | SK-MEL-5 > 100 µM | T47D > 100 µM | MDA-MB-231 > 100 µM | MDA-N > 100 µM | HCC 2998 > 100 µM | SNB-75 > 100 µM | Hs-578T > 100 µM | UACC-62 > 100 µM

Cc1cc(/N=N/c2ccccc2C)ccc1N
inactive: OVCAR-3 7.35 µM | 786-0 10.5 µM | ACHN 5.52 µM | A549 4.32 µM | KM12 10.6 µM | EKVX 15.5 µM | UO-31 3.02 µM | OVCAR-5 17.9 µM | SF-539 2.54 µM | SK-MEL-5 15.8 µM | HOP-92 10.5 µM | MDA-MB-231 14.8 µM | MDA-N 18.5 µM | HCC 2998 12.4 µM | SNB-75 5.94 µM | Hs-578T 15.7 µM | SR 12.7 µM | UACC-62 12.5 µM
